Source: article PMC7508948, “Identification and validation of novel and more effective choline kinase inhibitors against Streptococcus pneumoniae” (Scientific Reports, 2020)
Read-outs that look alike come from different tables or passages of the source.

Tests used:
S. pneumoniae [1] = test: Interaction with vancomycin-provoked cell lysis; type: cell-based, Streptococcus pneumoniae; details: O.D. changes with vancomycin in presence of inhibitor
Experimental: (§1) Figure 3 Effect of drugs on the autolytic process. (A) Percent changes in O.D. were measured in cultures of S. pneumoniae exposed to various concentrations of drugs expressed as multiples of MIC. Percent changes were calculated by comparing initial and final O.D. values. (B) O.D. changes in cells treated with vancomycin (VAN) in the presence and absence of HC-3 (HC3), MN58b (MN), and RSM-932A (RSM). (C) Detergent induced lysis of cells grown to saturation in the presence of 0.5 MIC MN58b and RSM-932A. (D) Phosphate induced lysis of cells grown to saturation in the presence of 0.5 MIC MN58b and RSM-932A.
Autolysis is a process of cell lysis and death that is mediated by LTAs via choline binding autolysins[19] such as LytA. […] In light of the non-specificity observed with HC-3 (being able to interfere with both ChoKs and the autolytic process), it seemed logical to check the specificity of MN58b and RSM-932A for sChoK inhibition. The interaction of MN58b, RSM-932A, and HC-3 with bacteriolytic antibiotic vancomycin was determined (Fig. 3B). […] The non-specificity of HC-3 may help to explain its weakness against sChoK.

S. pneumoniae R6 strain [2] = system: S. pneumoniae R6 strain; design: method as in PMID 28946671; details: previously reported; cited from earlier work
sChoK [3] = biological target: T1, sChoK (Streptococcus pneumoniae, UniProt Q8DPI4); design: method as in doi:10.30721/fsab2018.v1.i2.40; details: previously reported; read-out: IC50 against sChoK; cited from earlier work
T1 sequence (Q8DPI4 entry or part of it): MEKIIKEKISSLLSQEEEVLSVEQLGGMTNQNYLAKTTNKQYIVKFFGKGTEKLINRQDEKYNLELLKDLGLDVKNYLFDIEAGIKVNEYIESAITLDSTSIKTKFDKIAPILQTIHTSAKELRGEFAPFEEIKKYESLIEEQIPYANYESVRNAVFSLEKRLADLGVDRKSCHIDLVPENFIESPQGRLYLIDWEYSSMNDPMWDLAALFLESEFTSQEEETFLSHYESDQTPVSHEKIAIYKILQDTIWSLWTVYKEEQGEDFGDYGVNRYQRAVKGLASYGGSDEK

sChoK [4] = biological target: T1, sChoK; test: Colorimetric choline kinase assay with S. pneumoniae extracts; type: biochemical; details: choline consumption
Excerpt: (§2) When using cell extracts such as BL21 (DE3) extracts containing sChoK or S. pneumoniae extracts as the enzyme source, a colorimetric method was used to quantify Cho consumption and PCho production as described previously.
In light of the inconsistent results between sChoK inhibition by MN58b and RSM-932A which are both known choline kinase inhibitors, we repeated the colorimetric experiments using S. pneumoniae extracts as the source of sChoK, The goal of the experiment was to determine whether or not differences in sChoK inhibition could be detected in a more native environment than that provided by extracts of E. coli overexpressing sChoK or purified sChoK. […] This agonism was confirmed by mass spectrometry (data not shown) and was also found to be ATP dependent, thereby supporting the inference that RSM-932A was still affecting sChoK activity, although in the opposite direction.

S. pneumoniae [5] = test: Detergent and phosphate induced lysis of cells grown with 0.5 MIC inhibitor; type: cell-based, Streptococcus pneumoniae; details: cells grown in presence of 0.5 MIC
Experimental: as §1
Given the observation that MN58b and RSM-932A were sChoK inhibitors, our expectation was that cells treated with these inhibitors would show a decrease in overall LTA content because a decrease in phosphocholine availability would reduce the overall production of LTA residues and, by extension, LTA molecules. A reduction in LTA content, in turn, should help desensitize cells to autolytic induction. Although autolysin proteins would be released, they would not be able to dock on the cell surface because the autolysin choline binding domains would have fewer choline containing LTA molecules with which to interact. Both LTA reduction and cell […] had previously been observed with HC-3[17].

S. pneumoniae R6 cells = test: Western blot detection of lipoteichoic acid (LTA); type: cell-based, Streptococcus pneumoniae; details: cells grown to saturation with 0.5 MIC
Experimental: R6 cells were cultured to saturation in either BHI-cat alone or BHI-cat 0.5 MIC of MN58b or RSM-932A. One milliliter (1 mL) of cell samples was centrifuged at 3,000g, sonicated 3 × 2 min on ices. Western blots were performed as described[3] while total protein on the membrane was measured by fluorescence according to Quickstain instructions.
In order to quantify LTA production, western blots were performed on extracts of cells grown to saturation in the presence of 0.5 MIC MN58b or RSM-932A. LTA band patterns clearly differed between treatments. […] It is important to note that each size band in an LTA western blot differs from the lower one by a single LTA residue (Fig. 4A)[19].

sChoK [6] = biological target: T1, sChoK; test: IC50 by colorimetric method with BL21 (DE3) extracts expressing recombinant sChoK; type: biochemical
Experimental: as §2
The IC50s of each drug against sChoK were measured using two methods: the indirect ldh/pk method that relied on recombinant sChoK and which indirectly measured consumption of ATP[14] and a previously reported colorimetric method that relied on BL21 (DE3) extracts expressing recombinant sChoK, which directly measured the consumption of choline and the production of phosphocholine. Inhibitors were similarly effective in a complex cell extract and in a simplified system relying on a purified enzyme. […] RSM-932A was stronger that MN58b by 1–2 orders of magnitude.

S. pneumoniae R6 strain [7] = test: Minimum inhibitory concentration (MIC) and minimum lethal concentration (MLC) in culture; type: cell-based, Streptococcus pneumoniae; details: for MLC: S. pneumoniae R6, 99.9% of cells killed by CFU counts; for MIC: Streptococcus pneumoniae, R6STRAIN, S. pneumoniae R6, BHI-CAT, O.D.610 of 0 at end of culture
Experimental: Seven μL of a glycerol stock of the S. pneumoniae R6 strain was used to inoculate 7 mL of Brain Heart Infusion broth (BHI, Accumedia, Sydney, Australia) supplemented with 5 units/mL catalase (BHI-CAT). This starter culture was incubated at 37 °C in a water bath until an optical density at 610 nm (OD610) […]. Forty μL of this starter culture was used to inoculate 40 mL of BHI-CAT media with or without varying concentrations of inhibitor.
MIC was determined as the concentration inhibitor at which an O.D.610 of 0 was measured at the end of culture time. MLC was defined as the concentration at which 99.9% of cells were killed at the end of culturing time as determined by CFU counts using Meuller–Hinton plates.

S. pneumoniae [8] = test: Percent O.D. changes of cultures exposed to multiples of MIC (bacteriostatic/bacteriolytic); type: cell-based, Streptococcus pneumoniae; details: cultures grown to O.D. 0.500, concentrations as multiples of MIC
Experimental: as §1

sChoK [9] = biological target: T1, sChoK; test: IC50 by LDH/PK with purified recombinant sChoK; type: biochemical
Experimental: Purified sChoK was used in these assays. Steady-state enzymatic assays were monitored with the pyruvate kinase/lactate dehydrogenase (PK/LDH) reaction. The steady-state rate of ADP formation was calculated using an extinction coefficient of 6,200 M^−1 cm^−1 to determine linear reductions in NADH concentrations that were observed by absorbance at 340 nm. Measurements were carried out at 25 °C in a UV-Star 96-well plate (Greiner) placed in a Synergy HT microplate reader (Biotek). Each well contained 200 µL of a solution containing 22 nM sChoK enzyme, 100 mM Tris pH 8, 10 mM MgCl2, 150 mM NaCl, 150 mM KCl, […], 0.66 mM phosphoenolpyruvate, 20 units of LDH, and 10 units of PK, choline. ATP. […] The kcat was calculated by dividing the Vmax by the enzyme concentration.
Using the conditions described above, the concentration of choline was set to the Km and increasing amounts of inhibitor were tested. Percent inhibition was determined. The IC50 was determined as the concentration of inhibitor required to reach 50% inhibition.

sChoK [10] = biological target: T1, sChoK; test: Substrate-inhibitor competition (competitivity) by LDH/PK; type: biochemical
Experimental: The mechanism of action of the inhibitors with respect to each substrate was determined using a previously described method[13],[14]. Briefly, using the IC50 of each inhibitor determined at the Km of choline, the concentration of one substrate was kept constant, and initial velocities were measured while varying the second substrate in the presence and absence of the inhibitor. The percentage of inhibition (%I) was determined by dividing each initial velocity in the presence of the inhibitor with its corresponding initial velocity in the absence of compound. %I was plotted against concentration and fitted using a two-parameter-fit nonlinear regression algorithm of GnuPlot v 4.3 into Eq. (2).2 %I=100×(([I]/Ki+[S][I]/αKsKi/(1+[S]/Ks+[I]/Ki+[S][I]/αKsKi)) where [S] is the concentration of the varied substrate, [I] is the concentration of inhibitor, Ks is the dissociation constant of the substrate (assumed to be equal to the Km), Ki is the dissociation constant of the inhibitor, and α is a numerical constant that measures the effect the substrate has on the binding of the inhibitor and vice versa.
A mechanistic analysis was performed for each inhibitor by performing steady-state enzymatic reactions with sChoK in which one substrate was varied while the other substrate was fixed both in assays with and without inhibitor fixed at a concentration equal to its IC50. sChoK inhibition was calculated as a percentage (%I) calculated by dividing the initial velocity at each substrate concentration with inhibitor by counterpart initial velocities in the absence of inhibitor. %I values were plotted against substrate concentration. The resulting data was fitting to an Eq. (2) and Ki and α values calculated.

Row | Compound | Effect on cell lysis provoked by vancomycin (S. pneumoniae [1]) | Effect on choline kinase activity in S. pneumoniae extracts (sChoK [4]) | Sensitivity of cells to induced autolysis (S. pneumoniae [5]) | LTA size pattern (S. pneumoniae R6 cells) | Total LTA production (S. pneumoniae R6 cells) | IC50 (sChoK [6]) [µM] | MLC (S. pneumoniae R6 strain [7]) [µM] | MIC (S. pneumoniae R6 strain [7]) [µM] | Bacteriostatic or bacteriolytic action (S. pneumoniae [8]) | IC50 (sChoK [9]) [µM] | Kminh/Kmfree (sChoK [10]; (A) inhibitor vs ATP) | Mechanism of Inhibition (sChoK [10]; (A) inhibitor vs ATP) | Vmaxinh/Vmaxfree (sChoK [10]; (A) inhibitor vs ATP) | α (sChoK [10]; (A) inhibitor vs ATP) | Mechanism of Inhibition (sChoK [10]; (B) inhibitor vs choline) | Vmaxinh/Vmaxfree (sChoK [10]; (B) inhibitor vs choline) | Ki (sChoK [10]; (A) inhibitor vs ATP) [µM] | Ki (sChoK [10]; (B) inhibitor vs choline) [µM] | further results
1 | C[N+]1(C)CCOC(O)(c2ccc(-c3ccc(C4(O)C[N+](C)(C)CCO4)cc3)cc2)C1 (centres unmarked) [HC-3, Hemicholinium-3] | prevented cell lysis provoked by vancomycin | – | – | – | – | – | – | – | – | – | – | – | – | – | – | – | – | – | MIC (S. pneumoniae R6 strain [2]): 5,400 µM; IC50 (sChoK [3]): 2700 µM
2 | CN(C)c1cc[n+](Cc2ccc(CCCCc3ccc(C[n+]4ccc(N(C)C)cc4)cc3)cc2)cc1 [MN58b, 1,4-[4–4′-Bis-{[4-(dimethylamine)pyridinium-1-yl]methyl}diphenyl]butane dibromide] | minimal to no effect | continued to function as an inhibitor of choline kinase activity | primed the cells to be autolyzed | marked increase in the smaller sizes of LTA | marked increase in total LTA production | 225 | 20 | 10 | bacteriostatic up to a concentration of 50 × MIC after which they become bacteriolytic | 645 | 3.48 | Mixed | 0.76 | 6.0 ± 2.2 | Mixed | 0.69 | 182 ± 28.1 | 124 ± 19.2 | Kminh/Kmfree (sChoK [10]; (B) inhibitor vs choline): 2.3
3 | CN(c1ccc(Cl)cc1)c1cc[n+](Cc2ccc(-c3ccc(C[n+]4ccc(N(C)c5ccc(Cl)cc5)c5ccccc54)cc3)cc2)c2ccccc12.[Br-].[Br-] [RSM-932A, 1,1′-([1,1′-biphenyl]-4,4′-diylbis(methylene))bis(4-((4-chlorophenyl)(methyl)amino)quinolin-1-ium) bromide] | minimal to no effect | somewhat inhibitory at lower concentrations, it functioned as an agonist of choline kinase activity at higher concentrations | equally sensitive to autolysis as untreated controls | larger size polymers were favored | overall production remained unchanged | 0.5 | 1.6 | 0.4 | bacteriostatic up to a concentration of 50 × MIC after which they become bacteriolytic | 22 | 0.92 | Noncompetitive | 0.61 | 1.1 ± 0.17 | Mixed | 0.76 | 35.8 ± 3.2 | 10.6 ± 0.9 | α (sChoK [10]; (B) inhibitor vs choline): 8.1 ± 1.8
